Data published in paper PMC8011081, “Bio-guided isolation of anti-leishmanial natural products from Diospyros gracilescens L. (Ebenaceae)” (BMC Complementary Medicine and Therapies, 2021).
Read-outs that look alike come from different tables or passages of the source.

Tests used:
in vitro = details: mouse
Method: The cytotoxicity profile of extracts, fractions and compounds was assessed using the Alamar blue assay against Raw 264.7 cells duly cultivated in complete Dulbecco’s Modified Eagle’s Medium (DMEM) containing 13.5 g/L DMEM (Sigma Aldrich), 10% fetal Bovine Serum (Sigma Aldrich), 0.2% sodium bicarbonate (w/v) (Sigma, Darmstadt, Germany) and 50 μg/mL gentamycin (Sigma Aldrich). Globally, macrophages were seeded into 96-wells cell-culture flat-bottomed plates at a density of 10^4 cells in final volume of 100 μL of complete medium/well and incubated for 24 h at 37 °C, 5% CO2, 70% RH in a ICO 105 memmert incubator (memmert, Schwabach, Germany) to allow cell adhesion. Ten μL of each serially diluted test sample were added in triplicate wells and assay plates were then incubated for 48 h in the same experimental conditions. Growth control consisted of 0.1%DMSO (100% growth) and positive control of podophyllotoxin (Sigma, Darmstadt, Germany) at 20 μM. Cell proliferation was checked by adding 10 μL of a stock solution of resazurin (0.15 mg/mL in sterile PBS) to each well followed by plates incubation during 4 h. Fluorescence was then read on a Tecan Infinite M200 fluorescence multi-well plate reader at an excitation/emission of 530/590 nm. […] Selectivity indices (CC50/IC50, defining the balance between cytotoxicity and antileishmanial activity) were calculated for each test substance.

[1] = tested on: L. donovani promastigotes (MHOM/SD/62/1S); assay: Inhibitory assay against L. donovani promastigotes (resazurin colorimetric assay); assay type: cell-based; details: Leishmania donovani, mean ± SD, triplicate
Method: The cryopreserved promastigote form of L. donovani (1S (MHOM/SD/62/1S) was obtained from Bei Resources (https://www.beiresources.org/) and is routinely cultured at the Antimicrobial and Biocontrol Agents Unit, University of Yaoundé I, in Medium 199 (Sigma, Darmstadt, Germany) supplemented with 10% Heat-Inactivated fetal Bovine Serum (HIFBS) (Sigma, Darmstadt, Germany) and 100 IU/mL penicillin and 100 μg/mL streptomycin. The culture was maintained in 75 Cm^2 cell culture flask at 28 °C and checked for growth daily and sub-cultured everyday 72 h.
The stock solutions were prepared by dissolving each sample in 100% dimethyl sulfoxide (DMSO) and subsequently diluted serially in non-supplemented culture medium. […] The viability rate of promastigotes positively correlated with the amount of pink resorufin that was produced through the reduction of blue resazurin by the dehydrogenase enzymes in the inner mitochondrial membrane of the living parasites. Briefly, promastigotes from a logarithmic phase culture (4 × 10^5 cells/mL; 90 μL) were seeded in 96-well microtiter plates and were treated with 10 μl of inhibitors at different triplicate concentrations ranging 100 μg/mL-0.16 μg/mL for extracts and fractions and 50 μg/mL-0.08 μg/mL for compounds. The final concentration of DMSO in each well was not higher than 1%. Plates were incubated for 28 h at 28 °C, followed by the addition of 1 mg/mL resazurin (Sigma, Darmstadt, Germany). […] After an additional incubation for 44 h, plates were then read on a Magelan Infinite M200 fluorescence multi-well plate reader (Tecan, Männedorf, Switzerland) at an excitation and emission wave lengths of 530 and 590 nm respectively.

L. donovani amastigotes = assay: Inhibitory assay against intracellular L. donovani amastigotes in Raw 264.7 macrophages (resazurin); assay type: cell-based; details: Leishmania donovani, RAW264.7, isolated compounds, mean ± SD
Method: The effect of plant isolates against the intracellular amastigote form of L. donovani was evaluated essentially as described by Jain et al. with some modifications. Briefly, macrophage Raw 264.7 cells ([…]) were seeded in 96 well plates and incubated for 6 h at 37 °C under 5% CO2 for adhesion of the cells. Afterwards, the non-adherent cells were washed-out with sterile PBS. The adherent Raw 264.7 cells were infected with metacyclic promastigotes (4 × 10^5 cells) at an infection ratio of 1:10 macrophage: parasites and incubated for 24 h at 37 °C under 5% CO2 in order to allow infection of macrophages by metacyclic promastigotes. Thereafter, the overlying medium was removed, and the monolayer cells with internalized amastigotes were carefully washed four times with PBS to remove free parasites. Freshly prepared M199 medium containing 10% FBS and the test extracts were added in triplicate to the infected cells at serially diluted concentrations and incubated for 48 h at 37 °C under 5% CO2. After incubation, 0.05% Sodium dodecyl sulfate (SDS) was added in each well for 30 s for controlled lysis followed by M199 with 10% FBS as macrophage lysis stopper. Resazurin reagent (250 μg/mL) was thereafter added in each well and the plates were incubated for 24 h followed by fluorescence recording at λexcitation = 530 nm and λemission = 590 nm using a Tecan Infinite M200 microplate reader (Tecan). Inhibition percentages were calculated using Microsoft Excel Software and median inhibitory concentration (IC50) obtained from dose-response curves using GraphPad Prism 5.0. Software.

[2] = tested on: L. donovani promastigotes; assay: Concentration/time inhibition (kill) kinetics, trypan blue counting; assay type: cell-based, Leishmania donovani
Method: The number of viable parasites was determined after every 24 h over 120 h by staining with trypan blue. Quantification of viable parasites was achieved by counting the parasites with clear cytoplasm (non-stained) using a Neubauer hemocytometer with cover slips. Three independent experiments were performed for each sample.

[3] = isolated compounds, read-out: IC50 (Promastigotes)

In the case of `OC1CC(O)C(O)C(O)C1O` (centres unmarked) [1-deoxyinositol (7), 1-deoxyinositol], the CC50 (in vitro) is reported as > 1220 µM, the IC50 [1, 3] is reported as 241.71 ± 0.16 µM and the IC50 (L. donovani amastigotes) is reported as 120 ± 0.18 µM.

Work on `C[C@@H]1[C@H](O)[C@@H](C)/C=C/C=C/C=C/C=C/C=C/C=C/C=C/[C@H](O[C@@H]2O[C@H](C)[C@@H](O)[C@H](N)[C@@H]2O)C[C@@H]2O[C@](O)(C[C@@H](O)C[C@@H](O)[C@H](O)CC[C@@H](O)C[C@@H](O)CC(=O)O[C@H]1C)C[C@H](O)[C@H]2C(=O)O` [Amphotericin B, reference compound] yielded an IC50 ([1]; crude extracts, H20: EtOH, read-out: Promastigote of L. donovani (MHOM/SD/62/1S) IC50 ± SD) of 0.34 ± 0.22 µg/mL, an IC50 [1, 3] of 0.37 ± 0.22 µM and an IC50 ([1]; trunk extract and fractions, read-out: IC50 (Promastigotes)) of 0.34 ± 0.22 µg/mL. For the same compound, the “Effect on promastigote replication / growth” value ([2]; 0.5x IC50, IC50, 2x IC50, 4x IC50, viable parasites counted every 24 h) was “significant reduction in promastigote replication after 24 h” and the Cidal effect ([2]; all tested concentrations, exposure up to 120 h) was “no evidence of cidal effect”.

Work on `C=C(C)[C@@H]1CC[C@]2(C(=O)O)CC[C@]3(C)[C@H](CC[C@@H]4[C@@]5(C)CC[C@H](O)C(C)(C)[C@@H]5CC[C@]43C)[C@@H]12` [Betulinic acid (3), Betulinic acid] yielded a CC50 (in vitro) of 82.39 ± 0.09 µM, an IC50 [1, 3] of 13.69 ± 0.07 µM and an IC50 (L. donovani amastigotes) of 18.46 ± 0.01 µM.

Compound `C=C(C)[C@@H]1CC[C@]2(C)CC[C@]3(C)[C@H](CC[C@@H]4[C@@]5(C)CC[C@H](O)C(C)(C)[C@@H]5CC[C@]43C)[C@@H]12` [Lupeol (1), Lupeol] has a CC50 at 48 h (in vitro; Raw 264.7 cells (macrophages)) of 19.3 ± 0.3 µM, an IC50 [1, 3] of 23.22 ± 0.08 µM and an IC50 (L. donovani amastigotes) of 46.7 ± 0.65 µM.

In the case of `CCC(CCC(C)C1CCC2C3CC=C4CC(OC5OC(CO)C(O)C(O)C5O)CCC4(C)C3CCC12C)C(C)C` [β-sitosterol glucoside (6), β-sitosterol 3-O-D-glucopyranoside], the CC50 at 48 h (in vitro) is reported as 28.6 ± 0.07 µM, the IC50 [1, 3] is reported as 49.34 ± 0.12 µM and the IC50 (L. donovani amastigotes) is reported as 32 ± 0.22 µM.
